Results on 1 molecule are retold here after patent US7589173B2, “Methods for diagnosing cancer and decreasing metastasis by cancer cells” (The Scripps Research Institute, priority 2003, dated 2009).

This test relates to SIMA135 tyrosine phosphorylation. Conditions: PP2 50 μM, 30 minutes at 37° C, serum free DMEM.

Experimental: Cell lysates, serum free conditioned media and immunoprecipitated proteins were separated by electrophoresis through 8% SDS-polyacrylamide gels then transferred to nitrocellulose membranes (Millipore). […] Following extensive washing membranes were incubated for 2 hr at room temperature with goat anti-mouse IgG (0.16 μg/ml, Pierce, Rockford, Il) and immunoreactive bands detected by enhanced chemiluminescence (Pierce).
For analysis of the basal level of tyrosine phosphorylation of SIMA135, subconfluent cultures of HEp3 and HeLa (as negative control) cells were incubated at 37° C. for 30 min with serum free DMEM containing 50 mM NaF and 1 mM Na3VO4 then washed with ice cold PBS. For inhibition of Src kinase family phosphorylation, HEp3 cells were cultured in serum free DMEM without NaF and Na3VO4 for 30 minutes at 37° C. with PP2 (50 μM). Cells were then lysed in ice cold buffer containing 50 mM Tris (pH 7.4), 150 mM NaCl, 1% Triton X-100, 1 mM phenylmethylsulfonyl fluoride, 1 mM benzamidine, 25 μg/ml aprotinin, 25 μg/ml leupeptin, 50 mM NaF and 1 mM Na3VO4. Insoluble material was removed by centrifugation at 14000 rpm for 10 min. […] Cells lysates were collected as described above.

Turning to `CC(C)(C)n1nc(-c2ccc(Cl)cc2)c2c(N)ncnc21` [PP2], the “reduction in the level of SIMA135 tyrosine phosphorylation compared to untreated HEp3 cells” value is approximately 75%.
